Data set [1] relates to AsPC-1. The data set can be described thus: CellTiterGlo cell viability, AsPC-1 cells. The class given is cell-based. Conditions: Homo sapiens, ASPC1, 72 h. Here is the method:
(§1) The IC50 values for (R)-H4CBD, (S)-H4CBD, H4CBDV racemic mixture, and bortezomib were determined. Compound treatment of cells started one day after seeding with a final DMSO concentration of 0.1% and was performed by nanodrop-dispensing using a Tecan Dispenser. 0.1% DMSO (solvent) and Staurosporine (1,0E-05M) served as high control (100% viability) and low control (0% viability), respectively. For the assays, cells were seeded in white cell culture-treated flat and clear bottom multiwell plates and incubated at 37° C. overnight before compounds were added. After incubation for 72 h at 37° C. at 5% or 10% CO2 dependent on the medium, cell plates were equilibrated to room temperature for one hour, CellTiterGlo reagent (Promega) was added and luminescence was measured approximately an hour later using a luminometer.
(§2) Raw data were converted into percent cell viability relative to the high and low control, which were set to 100% and 0%, respectively. IC50 calculation was performed using GraphPad Prism software with a variable slope sigmoidal response fitting model using 0% viability as bottom constraint and 100% viability as top constraint. IC50 results in PANC-1, MIA-PaCa2, and AsPC-1 cells for (R)-H4CBD, (S)-H4CBD, H4CBDV racemic mixture, and bortezomib are shown in FIGS. 10-12 and Table 2
(In general: Cellular ATP, detected with luciferase, serves as a proxy for viable cell number.)

Data set [2] deals with MiaPaCA-2. The data set can be described thus: CellTiterGlo cell viability, MiaPaCA-2 cells. Conditions: Homo sapiens, MIA PaCa-2, 72 h. The class given is cell-based. The method, then: as §1, §2
Data set [3] relates to A549 Lung Carcinoma Epithelial Cells (CCL-185 from ATCC). The data set can be described thus: Percent viability of lung carcinoma cells. Conditions: Homo sapiens, A549, read-out: Percent viability of cells, Mean (%). In kind it is cell-based. Here is the method: GR-X1=H4CBDV, GR-X2=(R)-H4CBD, GR-X3=(S)-H4CBD, GR-X4=HHC.
The IC50 of the hydrogenated cannabivarin, hexahydrocannabidivarin (H4CBDV), (R)-H4CBD, (S)-H4CBD, HHC racemic mixture, and gemcitabine, paclitaxel, and 5-fluorouracil were determined in lung carcinoma cells (A549 Lung Carcinoma Epithelial Cells (CCL-185 from ATCC)) as shown in FIGS. 39-43 and Table 3.

Data set [4] can be described thus: Potential maximum tolerated dosages in mice. The class given is in vivo. Here is the method: To determine potential maximum tolerated dosages, 3.12, 6.25, 10, and 12.5 mg/kg of CCL-106, for 2, 2, 1, and 1 doses respectively, were administered to mice. […] Mice were administered high doses of CCL-104 and CCL-106.

The term IC50 denotes the midpoint of a concentration-inhibition curve. A lower IC50 goes with greater potency in that assay. One may read the viability as a per cent measure of how many cells are alive, often set against a control. Turning to `CCCc1cc(O)c(C2CC(C)CCC2C(C)C)c(O)c1` (racemic) [CCL-106, hexahydrocannabidivarin], the concentration for half-maximal inhibition (IC50) was 1050 nM in data set [1] and 530 nM in data set [2]. The viability at 1.56 µM in data set [3] (agent concentration 1.56 uM) came out at 92.1%. The viability at 3.12 µM in data set [3] (agent concentration 3.12 uM) came out at 95.2%. For the same compound, the viability at 6.25 µM in data set [3] (agent concentration 6.25 uM) was 93.4%. In addition, the viability at 12.5 µM in data set [3] (agent concentration 12.5 uM) came to 93.6%. The viability at 25 µM in data set [3] (agent concentration 25 uM) is 21.5%. Also, the viability at 50 µM in data set [3] (agent concentration 50 uM) came out at 5.65%. Moreover, the toxicity observed result was “acute toxicity for CCL-106 (strong tremors and weight loss)” in data set [4] (12.5 mg/kg, mouse); “seizure like symptoms but recovered more quickly (around 30 minutes)” in data set [4] (15.63 mg/kg dose at each of days 5, 6, and 7, mouse); “stop moving after about 2 minutes and have seizure like symptoms” in data set [4] (31.25 mg/kg dose, mouse); “killed a mouse immediately” in data set [4] (39.06 mg/kg dose, mouse); “killed a mouse immediately” in data set [4] (46.87 mg/kg dose, mouse); “No toxicity was observed” in data set [4] (3.12, 6.25, and 10 mg/kg dose, mice). The tail vein toxicity result in data set [4] (daily 31.25 mg/kg doses, mouse) was “displayed tail vein toxicity on day 2”.

Values taken from US20260097049A1, “C[…] AND METHODS OF USE FOR TREATMENT AND PREVENTION OF CANCER” (BlackStone Therapeutics, LLC, priority 2022, published 2026).
